pIC50: −log10 of the molar value. The source made the active and inactive calls. The rule behind the calls is not given here.
Tests used:
[1] = test system: SW480; test: Antiproliferative activity against human SW480 cells incubated for 72 hrs by MTS assay; type: functional, cell-based; settings: SW480, 72 h
[2] = test system: HCT-116; test: Antiproliferative activity against human HCT116 cells incubated for 72 hrs by MTS assay; type: functional, cell-based; settings: HCT-116, 72 h
[3] = test system: MDA-MB-231; test: Antiproliferative activity against human MDA-MB-231 cells incubated for 72 hrs by MTS assay; type: functional, cell-based; settings: MDA-MB-231, 72 h
[4] = test system: MDA-MB-468; test: Antiproliferative activity against human MDA-MB-468 cells incubated for 72 hrs by MTS assay; type: functional, cell-based; settings: MDA-MB-468, 72 h
[5] = (§1) Inhibition of Wnt/beta-catenin transactivation signalling in human SW480 cells harboring wild type tcf4 binding sites incubated for 24 hrs by TOPFlash luciferase assay; type: cell-based
[6] = test system: SW480; test: as §1; type: cell-based
[7] = test system: SW480; test: Inhibition of Wnt/beta-catenin transactivation signalling in human SW480 cells harboring mutant tcf4 binding sites assessed as relative activity at 12.5 uM incubated for 24 hrs by FOPFlash luciferase assay relative to control; type: cell-based; set-up: scale not given: the % may be the effect or the level left
[8] = target: Protein Wnt-3a (Mus musculus) (UniProt P27467); test: Inhibition of mouse wnt3a expressed in human MDA-MB-231 cells assessed as cyclin D1 level at 10 uM incubated for […] by quantitative real-time PCR analysis relative to control; type: cell-based; set-up: scale not given: the % may be the effect or the level left
[9] = target: Protein Wnt-3a (Mus musculus) (UniProt P27467); test: Inhibition of mouse wnt3a expressed in human MDA-MB-231 cells assessed as LEF1 level at 3.3 uM incubated for […] by quantitative real-time PCR analysis relative to control; type: cell-based; set-up: scale not given: the % may be the effect or the level left
[10] = target: Protein Wnt-3a (Mus musculus) (UniProt P27467); test: Inhibition of mouse wnt3a expressed in human MDA-MB-231 cells assessed as LEF1 level at 10 uM incubated for […] by quantitative real-time PCR analysis relative to control; type: cell-based; set-up: scale not given: the % may be the effect or the level left
[11] = Downregulation of HPRT in human MDA-MB-231 cells assessed as HPRT level at 30 uM incubated for […] by quantitative real-time PCR analysis relative to control; type: ADME, cell-based; settings: mda-mb-231, 30 µM
[12] = target: Protein Wnt-3a (Mus musculus) (UniProt P27467); test: Inhibition of mouse wnt3a expressed in human MDA-MB-231 cells assessed as HPRT level at 30 uM incubated for […] by quantitative real-time PCR analysis relative to control; type: cell-based; set-up: scale not given: the % may be the effect or the level left
[13] = target: Protein Wnt-3a (Homo sapiens) (UniProt P56704); test: Inhibition of Wnt3a in human SW480 cells assessed as Axin2 level at 3.3 uM incubated for […] by quantitative real-time PCR analysis relative to control; type: cell-based; set-up: scale not given: the % may be the effect or the level left
[14] = target: Protein Wnt-3a (Homo sapiens) (UniProt P56704); test: Inhibition of Wnt3a in human SW480 cells assessed as Axin2 level at 10 uM incubated for […] by quantitative real-time PCR analysis relative to control; type: cell-based; set-up: scale not given: the % may be the effect or the level left
[15] = target: Protein Wnt-3a (Homo sapiens) (UniProt P56704); test: Inhibition of Wnt3a in human SW480 cells assessed as Axin2 level at 30 uM incubated for […] by quantitative real-time PCR analysis relative to control; type: cell-based; set-up: scale not given: the % may be the effect or the level left
[16] = target: Protein Wnt-3a (Homo sapiens) (UniProt P56704); test: Inhibition of Wnt3a in human SW480 cells assessed as cyclin D1 level at 3.3 uM incubated for […] by quantitative real-time PCR analysis relative to control; type: cell-based; set-up: scale not given: the % may be the effect or the level left
[17] = target: Protein Wnt-3a (Homo sapiens) (UniProt P56704); test: Inhibition of Wnt3a in human SW480 cells assessed as cyclin D1 level at 30 uM incubated for […] by quantitative real-time PCR analysis relative to control; type: cell-based; set-up: scale not given: the % may be the effect or the level left
[18] = target: Protein Wnt-3a (Homo sapiens) (UniProt P56704); test: Inhibition of Wnt3a in human SW480 cells assessed as LEF1 level at 10 uM incubated for […] by quantitative real-time PCR analysis relative to control; type: cell-based; set-up: scale not given: the % may be the effect or the level left
[19] = Downregulation of HPRT level in human SW480 cells at 10 uM incubated for […] by quantitative real-time PCR analysis relative to control; type: ADME, cell-based; settings: sw480, 10 µM
[20] = test system: SW480; test: Inhibition of Wnt signalling in human SW480 cells assessed as reduction in Axin2 expression incubated for 24 hrs by Western blot analysis; type: cell-based
[21] = target: beta-catenin-B-cell lymphoma 9 protein complex (Homo sapiens) (UniProt P35222+O00512); test: Disruption of beta-catenin/N-terminal biotinylated human BCL9 HD2 (350 to 375 residues) protein-protein interaction in human SW480 cells incubated for 1 hr followed by N-terminal biotinylated human BCL9 HD2 addition and measured after 2 hrs by pull-down assay; type: cell-based; settings: time 3.0 hrs
[22] = target: T1, Cadherin-1 (Homo sapiens) (UniProt P12830); test: Disruption of full length beta-catenin/E-cadherin interaction in human HCT116 cells incubated for 24 hrs by co-immunoprecipitation assay; type: cell-based; settings: HCT-116
T1 sequence (whole entry): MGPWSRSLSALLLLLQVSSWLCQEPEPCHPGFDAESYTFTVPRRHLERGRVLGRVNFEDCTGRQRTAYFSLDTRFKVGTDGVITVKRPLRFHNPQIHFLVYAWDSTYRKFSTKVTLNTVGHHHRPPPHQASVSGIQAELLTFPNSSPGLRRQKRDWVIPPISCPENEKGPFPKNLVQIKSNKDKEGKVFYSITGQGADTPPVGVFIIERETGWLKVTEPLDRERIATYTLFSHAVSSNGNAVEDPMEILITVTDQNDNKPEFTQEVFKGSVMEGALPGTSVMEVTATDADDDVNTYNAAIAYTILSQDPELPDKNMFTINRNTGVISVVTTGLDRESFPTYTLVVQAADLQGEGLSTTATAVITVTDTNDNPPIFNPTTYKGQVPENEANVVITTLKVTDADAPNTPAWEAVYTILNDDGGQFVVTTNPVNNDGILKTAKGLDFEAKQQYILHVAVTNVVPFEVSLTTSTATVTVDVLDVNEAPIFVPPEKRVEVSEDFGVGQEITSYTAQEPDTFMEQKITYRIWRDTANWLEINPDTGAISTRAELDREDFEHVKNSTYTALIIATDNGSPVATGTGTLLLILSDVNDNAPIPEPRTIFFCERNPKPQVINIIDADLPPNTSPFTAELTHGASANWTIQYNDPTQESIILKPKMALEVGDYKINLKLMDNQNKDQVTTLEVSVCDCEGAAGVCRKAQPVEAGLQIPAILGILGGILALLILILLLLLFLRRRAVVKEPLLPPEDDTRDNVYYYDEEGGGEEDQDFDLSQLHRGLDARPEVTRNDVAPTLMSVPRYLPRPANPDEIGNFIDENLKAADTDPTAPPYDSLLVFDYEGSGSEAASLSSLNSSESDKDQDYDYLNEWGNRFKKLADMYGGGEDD

[23] = test system: SW480; test: Antiproliferative activity against human SW480 cells harboring empty pcDNA3.1 vector incubated for 72 hrs by MTS assay; type: functional, cell-based; settings: SW480, 72 h
[24] = test system: SW480; test: Antiproliferative activity against human SW480 cells harboring beta-catenin pcDNA3.1 vector incubated for 72 hrs by MTS assay; type: functional, cell-based; settings: SW480, 72 h
[25] = target: Protein Wnt-3a (Mus musculus) (UniProt P27467); test: Inhibition of mouse wnt3a expressed in human MDA-MB-231 cells assessed as LEF1 level at 30 uM incubated for […] by quantitative real-time PCR analysis relative to control; type: cell-based; set-up: scale not given: the % may be the effect or the level left

Chain of Protein Wnt-3a (Homo sapiens) (P56704 whole entry): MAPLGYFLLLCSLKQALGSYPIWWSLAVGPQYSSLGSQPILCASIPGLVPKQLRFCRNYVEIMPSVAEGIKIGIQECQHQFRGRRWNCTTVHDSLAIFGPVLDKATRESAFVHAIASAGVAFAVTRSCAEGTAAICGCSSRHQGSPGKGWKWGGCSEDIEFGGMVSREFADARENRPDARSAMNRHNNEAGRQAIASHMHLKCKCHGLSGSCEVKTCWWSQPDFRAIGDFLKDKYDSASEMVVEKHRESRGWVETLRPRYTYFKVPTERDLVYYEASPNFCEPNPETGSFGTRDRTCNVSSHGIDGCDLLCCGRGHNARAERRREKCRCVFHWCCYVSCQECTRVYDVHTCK
Chain of Protein Wnt-3a (Mus musculus) (P27467 whole entry): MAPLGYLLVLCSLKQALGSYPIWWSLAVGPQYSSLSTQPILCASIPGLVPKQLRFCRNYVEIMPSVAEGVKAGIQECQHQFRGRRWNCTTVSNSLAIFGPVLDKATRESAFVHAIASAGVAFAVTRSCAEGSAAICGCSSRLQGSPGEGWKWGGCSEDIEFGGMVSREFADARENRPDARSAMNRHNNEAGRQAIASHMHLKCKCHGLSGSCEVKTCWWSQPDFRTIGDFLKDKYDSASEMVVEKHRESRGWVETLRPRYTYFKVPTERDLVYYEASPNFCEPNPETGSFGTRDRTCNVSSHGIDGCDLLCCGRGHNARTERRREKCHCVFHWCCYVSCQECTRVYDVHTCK

- pIC50 [1]: 4.79
- pIC50 [2]: 4.53
- pIC50 [3]: 4.84
- pIC50 [4]: 4.75
- pIC50 [5]: 5.18
- Activity [8]: 77%
- Activity [9]: 87%
- Activity [10]: 81%
- Activity [11]: 99%
- Activity [12]: 99%
- Activity [13]: 99%
- Activity [14]: 72%
- Activity [15]: 42%
- Activity [16]: 53%
- Activity [17]: 31%
- Activity [18]: 77%
- Activity [19]: 102%
- Activity [21]: Dose-Dependent Effect
- Activity [22]: inactive
- pIC50 [23]: 4.72
- pIC50 [24]: 4.07
- Activity [25]: 76%
SMILES: CC(C)(Oc1cccc(N2CCC[C@H](C(=O)N(Cc3ccc(-c4cccs4)cc3)C3CC3)C2)c1)C(=O)NS(=O)(=O)c1ccc(C#N)cc1
- Activity [6]: Dose-Dependent Effect
- Activity [7]: 102%
- Activity [20]: Dose-Dependent Effect

Source: ChEMBL document CHEMBL4823263, “Discovery of 2-(3-(3-Carbamoylpiperidin-1-yl)phenoxy)acetic Acid Derivatives as Novel Small-Molecule Inhibitors of the β-Catenin/B-Cell Lymphoma 9 Protein-Protein Interaction” (J Med Chem, 2021)
